One test concerns 6647 and TC-71 ES cells. Nature of the test: Transwell cell migration assay. Format: cell-based, human. As to conditions: 24 h pre-treatment; cladribine 1 or 3 μmol/L, clofarabine 0.3 or 0.5 μmol/L. The protocol:
Immunoblot analysis was performed on total cell lysates for ROCK2 and GAPDH expression. In FIG. 8B, TC-71 control and TC-CD99-shRNA #2 cells were treated with either drug at indicated concentrations for 1, 3 and 6 h. Immunoblot analysis was performed on total cell lysates for ROCK2 and GAPDH expression. In FIG. 8C, cell migration experiments were performed using Boyden chamber transwell migration assay with 10% serum serving as the chemoattractant in the lower chamber. […] The number of migrated cells was then quantified by counting the cells in the bottom chamber under the microscope. Asterisks indicate statistically significant differences between treatments (*p<0.05; vs. control using a Student's unpaired t test).
Motility assay was done using Trans-well chambers (Costar; Corning (Corning, N.Y.)) according to manufacturer's instructions.

A further test relates to SKES xenografts. As to the kind of experiment: Orthotopic SKES xenograft, i.p. administration. Conditions: for tumor growth: i.p. It is filed as in vivo, SCID/beige mice. How it is done:
All tumor tissues were fixed in 10% neutral buffered formalin for 24 h, dehydrated through a graded series of alcohols and cleared in xylenes prior to embedding in paraffin. Embedded tissues were cut into 5 μm thick sections and stained with hematoxylin and eosin (H&E). Immunohistochemical staining was performed for CD99 and caspase 3 (cleaved). Five micron sections from formalin fixed paraffin embedded tissues were de-paraffinized with xylenes and rehydrated through a graded alcohol series. Heat induced epitope retrieval was performed by immersing the tissue sections at 98° C. for 60 min in 10 mmol/L citrate buffer (pH 6.0). Immunohistochemical staining was performed using a horseradish peroxidase labeled polymer from Agilent (Santa Clara, Calif.) (#K4001, #K4003) according to manufacturer's instructions. Briefly, slides were treated with 3% hydrogen peroxide and 10% normal goat serum for 10 min each, and exposed to primary antibodies for CD99 (Abcam, #ab8855) at a 1:100 dilution and for caspase 3 (cleaved) (Biocare (Pacheco, Calif.), #CP229A) at a 1:90 dilution in Da Vinci Green for one hour and stained on an DAKO Autostainer. Slides were exposed to the appropriate HRP labeled polymer for 30 min and DAB chromogen (Dako (Santa Clara, Calif.) for 5 min. Slides were counterstained with Hematoxylin (Fisher, Harris Modified Hematoxylin), blued in 1% ammonium hydroxide, dehydrated, and mounted with Acrymount. Consecutive sections with the primary antibody omitted were used as negative controls. The sections were evaluated in a blinded fashion by a board certified pathologist.
The antitumor activity of drugs through intraperitoneal (i.p.) administration given once daily was determined. […] The in vivo potencies of drug treatments were evaluated by event-free survival curves, where tumors that reached 1.0 cm^3 in size considered an event.

A further test deals with 6647 ES cells. As to the kind of experiment: Cell viability IC50, 6647. Format: cell-based. Conditions: Homo sapiens. The protocol:
(§1) The plate was installed into the RTCA system, and the electrical impedance (represented as cell index) was measured every 10 min.
(§2) To investigate the relationship between the level of CD99 expression and drug sensitivity, the endogenous expression of CD99 was determined in a panel of 9 ES and 13 non-ES cell lines. The recombinant purified CD99-ECD protein was used to generate standard curves for immunoquantification of CD99 expression by immunoblotting (FIGS. 6B and 6C).

For test [1], the target named is T1, interaction of CD99 with cyclophilin A and PKA-RIIα (Homo sapiens, UniProt P14209).
T1 construct: Endogenous CD99 was immunoprecipitated from RDES or STA-ET-7.2 ES cells; endogenous in cells; host or cells: RDES or STA-ET-7.2
As to the kind of experiment: Co-immunoprecipitation of CD99 with cyclophilin A and PKA-RIIα. Format: cell-based. As to conditions: 3 μmol/L, 6 h; RDES or STA-ET-7.2 cells. How it is done:
In FIG. 7A, STA-ET-7.2 ES cells were incubated with either drug at 5 μmol/L concentration or DMSO for 1 h. The cells were treated with cross-linking agent BS^3 as described in the Examples. The lysates were resolved in 12% SDS-PAGE followed by immunoblotting with anti-actin and anti-CD99 clone 013 antibodies. M and D represent monomeric and dimeric forms of CD99, respectively. Values given below the lanes on the immunoblot represent the relative density of the bands, and were determined using ImageJ 1.48v software. In FIG. 7B, RDES or STA-ET-7.2 ES cells were treated with 3 μmol/L of either drug for 6 h. Endogenous CD99 was immunoprecipitated from total cell lysates using either anti-CD99 clone 12E7 antibody or anti-CD99 clone 013 antibody. Immunoblot (IB) analysis was performed for cyclophilin A, CD99 and PKA-RIIα using both cell lysates (TCL) and immunoprecipitated (IP) samples. Values given below the lanes on each immunoblot represent the relative density of the bands, and were determined using ImageJ 1.48v software. In FIG. 7C, SAOS-2 and U-2 OS cells were transiently transfected with an empty mammalian expression vector (EV) or an expression construct containing a cDNA encoding full length human CD99. The growth rate of cells was monitored by electrical impedance in real time. […]

In a further test the test system is SAOS-2 OS cells. Nature of the test: Cell viability IC50, SAOS-2. Format: cell-based. As to conditions: Homo sapiens. How it is done:
as §1, §2

pIC50: −log10 of the molar value.

Usually pIC50 stands for the negative decadic logarithm of the IC50, by convention in mol/L. Low readings indicate a high IC50, high ones a low IC50.

T1 sequence (P14209 23-185): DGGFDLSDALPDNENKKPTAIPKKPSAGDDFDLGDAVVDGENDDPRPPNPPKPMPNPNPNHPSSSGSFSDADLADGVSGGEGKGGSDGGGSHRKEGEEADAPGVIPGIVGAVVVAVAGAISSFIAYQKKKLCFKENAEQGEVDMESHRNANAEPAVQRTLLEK

With `Nc1nc(Cl)nc2c1ncn2[C@H]1C[C@H](O)[C@@H](CO)O1` [cladribine], in the test with 6647 and TC-71 ES cells, the “number of migrated cells” value is “significantly decreased”. Further, the tumor growth result with SKES xenografts (20 mg/kg both) was “less effective”. In addition, the pIC50 with 6647 ES cells is 6.15; in the test with SAOS-2 OS cells, < 4.52. Also, the “amount of coprecipitated cyclophilin A and PKA-RIIα” value in test [1] is given as “decreased significantly”.
For `Nc1nc(Cl)nc2c1ncn2[C@@H]1O[C@H](CO)[C@@H](O)[C@@H]1F` [clofarabine], in the test with 6647 and TC-71 ES cells, the “number of migrated cells” value is listed as “significantly decreased”. In addition, the “mitotic figures per field” value in the test with SKES xenografts (H&E, 200-fold magnification) is listed as ≤ 3. Also, in the test on SKES xenografts (H&E, confirmed by caspase-3 immunohistochemistry), the apoptotic cells result is on record as “significant increase”. In addition, the event-free survival result in the test with SKES xenografts (i.p. once daily, 20 mg/kg both, vs vehicle) was “significantly improved”. Besides, the tumor growth result with SKES xenografts (20 mg/kg both) is recorded as “significant inhibition of tumor growth”. The results for the pIC50 in the test with 6647 ES cells and in the test on SAOS-2 OS cells were 6.47 and < 4.52, respectively. Also, the “amount of coprecipitated cyclophilin A and PKA-RIIα” value in test [1] was “decreased significantly”.

Source of the values: patent US11202792B2, “CD99 inhibitors and their uses” (GEORGETOWN UNIVERSITY, priority 2016, dated 2021).
